We go through 28 compounds from patent publication US10092546B2, “Imidazole derivatives” (Hoffman-La Roche Inc., priority 2015, dated 2018).

The test has as its target T1, human EAAT3 (Homo sapiens, UniProt P43005).
T1 construct: expressed in transfected cells
T1 sequence (P43005 1-524): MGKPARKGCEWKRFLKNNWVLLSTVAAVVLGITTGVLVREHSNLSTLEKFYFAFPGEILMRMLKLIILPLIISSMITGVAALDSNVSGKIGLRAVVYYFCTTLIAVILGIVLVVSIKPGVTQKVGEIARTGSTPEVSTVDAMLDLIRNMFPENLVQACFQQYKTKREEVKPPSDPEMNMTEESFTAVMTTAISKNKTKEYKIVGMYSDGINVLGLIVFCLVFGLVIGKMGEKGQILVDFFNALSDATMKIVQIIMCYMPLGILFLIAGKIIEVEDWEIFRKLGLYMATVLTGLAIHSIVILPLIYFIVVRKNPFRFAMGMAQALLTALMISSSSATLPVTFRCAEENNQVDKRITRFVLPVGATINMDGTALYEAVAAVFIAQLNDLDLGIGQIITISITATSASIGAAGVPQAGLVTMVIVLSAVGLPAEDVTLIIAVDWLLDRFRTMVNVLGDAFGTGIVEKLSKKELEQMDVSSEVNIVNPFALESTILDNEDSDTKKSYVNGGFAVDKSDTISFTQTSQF
The test can be described thus: FLIPR Membrane Potential (FMP) assay, antagonist potency at human EAAT3. In kind it is cell-based. To be noted: HEK-293 cells stably expressing human EAAT3; L-glutamate as agonist at EC80; antagonist applied 15 min before; Kb by Cheng-Prusoff from IC50. As to the method:
The FLIPR Membrane Potential (FMP) Assay
HEK-293 cells stably expressing human EAAT3 were seeded at 55 000 cells/well in growth medium (DMEM glutamate free (Invitrogen 11960-044), 1% Pen Strep (10 ml/l GIBCO BRL No 15140-023), 10% FCS non dialysed heat inactivated, 5 mg/l puromycin) in poly-D-lysine treated 96-well black microtiter plates with clear-bottom. After 24 h, the growth medium was removed and 100 μl/well of Krebs buffer (140 mM NaCl, 4.7 mM KCl, 2.5 mM CaCl2, 1.2 mM MgCl2, 11 mM HEPES, 10 mM D-glucose, pH=7.4) added. The cells were then loaded by adding 100 μl/well FMP assay dye (FLIPR Membrane Potential assay reagent, Molecular Devices). The 96-well plates were then incubated at 37° C. for 1 h. The depolarization of the cells will cause more dye to enter in the cells, where it will bind to intracellular proteins and lipids and cause an increase in the fluorescence signal. Antagonist potency at human EAAT3 was determined by using L-glutamate as agonist at a concentration which gives 80% of the maximum response. The antagonists were applied 15 min before the application of the agonist L-glutamate. The assays were performed at room temperature and measurements done by using a Fluorometric Imaging Plate Reader (FLIPR, Molecular Devices) and filter #2. Responses were measured as peak increase in fluorescence minus basal (i.e. fluorescence without addition of L-glutamate). Kb was determined using the Cheng-Prusoff equation Kb=IC50/[1+(A/EC50)], where IC50 is the concentration of the antagonist producing 50% inhibition, A is the concentration of the agonist against which the IC50 is being determined (at EC80) and EC50 is the concentration of the agonist producing 50% […].

What is called Kb is the equilibrium dissociation constant of an antagonist, usually derived from a functional assay. A low value points to higher antagonist affinity. As to `CC(C)(C)NC(=O)c1cc(-c2ccc(F)cc2)nc(-n2ccnc2C2CC2)c1` [Example 4, N-tert-Butyl-2-(2-cyclopropyl-imidazol-1-yl)-6-(4-fluorophenyl)-pyridine-4-carboxamide], the Kb amounted to 160 nM.

`Cc1nccn1-c1cc(C(=O)NC(C)(C)C)cc(-c2ccc(C(F)(F)F)cc2)n1` [Example 21, N-tert-Butyl-2-(2-methyl-imidazol-1-yl)-6-[4-(trifluoromethyl)-phenyl]-pyridine-4-carboxamide] returned a Kb of 650 nM.

`CC(C)(NC(=O)c1cc(-c2ccc(Cl)cc2)nc(-n2ccnc2C2CC2)c1)C(F)(F)F` [Example 24, 2-(4-Chlorophenyl)-6-(2-cyclopropyl-imidazol-1-yl)-N-(1,1,1-trifluoro-2-methylpropan-2-yl)-pyridine-4-carboxamide] showed an antagonist equilibrium constant (Kb) of 510 nM.

The compound `CC(C)c1nccn1-c1cc(C(=O)NC2(C)CCS(=O)(=O)C2)cc(-c2ccc(F)cc2)n1` (racemic) [Example 38, (RS)-2-(4-Fluorophenyl)-N-(3-methyl-1,1-dioxothiolan-3-yl)-6-(2-propan-2-ylimidazol-1-yl)-pyridine-4-carboxamide] displayed a Kb of 140 nM.

The compound `CC(C)c1nccn1-c1cc(C(=O)NC(C)(C)C)cc(-c2ccc(Cl)cc2)n1` [Example 1, N-tert-Butyl-2-(4-chlorophenyl)-6-(2-propan-2-yl-imidazol-1-yl)-pyridine-4-carboxamide] had a Kb of 140 nM.

For the compound `CC(C)(C)c1nccn1-c1cc(C(=O)NC(C)(C)C2CC2)cc(-c2ccc(Cl)cc2)n1` [Example 17, 2-(2-tert-Butylimidazol-1-yl)-6-(4-chlorophenyl)-N-(2-cyclopropyl-propan-2-yl)-pyridine-4-carboxamide], the antagonist dissociation constant (Kb) stood at 280 nM.

Turning to `CCC(C)(C)NC(=O)c1cc(-c2ccc(F)cc2)nc(-n2ccnc2C(C)C)c1` [Example 39, 2-(4-Fluorophenyl)-N-(2-methylbutan-2-yl)-6-(2-propan-2-ylimidazol-1-yl)-pyridine-4-carboxamide], the Kb was 69 nM.

The compound `Cc1nccn1-c1cc(C(=O)NC(C)(C)C)cc(-c2ccc(F)cc2)n1` [Example 7, N-tert-Butyl-2-(4-fluorophenyl)-6-(2-methyl-imidazol-1-yl)-pyridine-4-carboxamide] came in with a Kb of 430 nM.

The compound `CC(C)(C)NC(=O)c1cc(-c2ccc(C(F)(F)F)cc2)nc(-n2ccnc2C(C)(C)C)c1` [Example 19, N-tert-Butyl-2-(2-tert-butylimidazol-1-yl)-6-[4-(trifluoromethyl)-phenyl]-pyridine-4-carboxamide] showed a Kb of 180 nM.

Compound `CC(C)(O)c1nccn1-c1cc(C(=O)NC(C)(C)C2CC2)cc(-c2ccc(Cl)cc2)n1` [Example 35, 2-(4-Chlorophenyl)-N-(2-cyclopropylpropan-2-yl)-6-[2-(2-hydroxypropan-2-yl)-imidazol-1-yl]-pyridine-4-carboxamide] displayed a Kb of 150 nM.

On to `CC(C)c1nccn1-c1cc(C(=O)NC(C)(C)C)cc(-c2ccc(C(F)(F)F)cc2)n1` [Example 3, N-tert-Butyl-2-(2-propan-2-yl-imidazol-1-yl)-6-[4-(trifluoromethyl)-phenyl]-pyridine-4-carboxamide], for which the antagonist equilibrium constant (Kb) worked out at 460 nM.

With `CC(C)(C#N)NC(=O)c1cc(-c2ccc(Cl)cc2)nc(-n2ccnc2C(C)(C)C)c1` [Example 37, 2-(2-tert-Butylimidazol-1-yl)-6-(4-chlorophenyl)-N-(2-cyanopropan-2-yl)-pyridine-4-carboxamide], the Kb was determined as 96 nM.

Consider `CC(C)(C)NC(=O)c1cc(-c2ccc(Cl)cc2)nc(-n2ccnc2C(C)(C)O)c1` [Example 33, N-tert-Butyl-2-(4-chlorophenyl)-6-[2-(2-hydroxypropan-2-yl)-imidazol-1-yl]-pyridine-4-carboxamide], for which the Kb was 170 nM.

`CC(C)(O)c1nccn1-c1cc(C(=O)NC(C)(C)C(F)(F)F)cc(-c2ccc(Cl)cc2)n1` [Example 36, 2-(4-Chlorophenyl)-6-[2-(2-hydroxypropan-2-yl)-imidazol-1-yl]-N-(1,1,1-trifluoro-2-methylpropan-2-yl)-pyridine-4-carboxamide] had a Kb of 78 nM.

`CC(C)(C)NC(=O)c1cc(-c2ccc(Cl)cc2)nc(-n2ccnc2C(C)(C)C)c1` [Example 12, N-tert-Butyl-2-(2-tert-butyl-imidazol-1-yl)-6-(4-chlorophenyl)-pyridine-4-carboxamide] came in with a Kb of 63 nM.

The compound `CC(C)c1nccn1-c1cc(C(=O)NC(C)(C)C#N)cc(-c2ccc(Cl)cc2)n1` [Example 40, 2-(4-Chlorophenyl)-N-(2-cyanopropan-2-yl)-6-(2-propan-2-yl-imidazol-1-yl)-pyridine-4-carboxamide] yielded a Kb of 360 nM.

The compound `CC(C)c1nccn1-c1cc(C(=O)NC(C)(C)CO)cc(-c2ccc(Cl)cc2)n1` [Example 30, 2-(4-Chlorophenyl)-N-(1-hydroxy-2-methylpropan-2-yl)-6-(2-propan-2-yl-imidazol-1-yl)-pyridine-4-carboxamide] registered a Kb of 190 nM.

For the compound `CCc1nccn1-c1cc(C(=O)NC(C)(C)C)cc(-c2ccc(Cl)cc2)n1` [Example 11, N-tert-Butyl-2-(4-chlorophenyl)-6-(2-ethyl-imidazol-1-yl)-pyridine-4-carboxamide], the Kb was determined as 250 nM.

Compound `CC(C)(C)NC(=O)c1cc(-c2ccc(C(F)(F)F)cc2)nc(-n2ccnc2C(C)(C)O)c1` [Example 34, N-tert-Butyl-2-[2-(2-hydroxypropan-2-yl)-imidazol-1-yl]-6-[4-(trifluoromethyl)-phenyl]-pyridine-4-carboxamide] gave a Kb of 240 nM.

`CC(C)(C)NC(=O)c1cc(-c2ccc(F)cc2)nc(-n2ccnc2C(C)(C)O)c1` [Example 18, N-tert-Butyl-2-(4-fluorophenyl)-6-[2-(2-hydroxypropan-2-yl)-imidazol-1-yl]-pyridine-4-carboxamide] showed a Kb of 100 nM.

Compound `CC(C)(C)NC(=O)c1cc(-c2ccc(F)cc2)nc(-n2ccnc2)c1` [Example 6, N-tert-Butyl-2-(4-fluorophenyl)-6-imidazol-1-yl-pyridine-4-carboxamide] yielded a Kb of 1000 nM.

The compound `CC(C)(C)NC(=O)c1cc(-c2ccc(Cl)cc2)nc(-n2ccnc2)c1` [Example 9, N-tert-Butyl-2-(4-chlorophenyl)-6-imidazol-1-yl-pyridine-4-carboxamide] came in with a Kb of 600 nM.

In turn, `CC(C)(NC(=O)c1cc(-c2ccc(Cl)cc2)nc(-n2ccnc2C2CC2)c1)C1CC1` [Example 16, 2-(4-Chlorophenyl)-6-(2-cyclopropyl-imidazol-1-yl)-N-(2-cyclopropyl-propan-2-yl)-pyridine-4-carboxamide] yielded a Kb of 300 nM.

On to `Cc1nccn1-c1cc(C(=O)NC(C)(C)C)cc(-c2ccc(Cl)cc2)n1` [Example 10, N-tert-Butyl-2-(4-chlorophenyl)-6-(2-methyl-imidazol-1-yl)-pyridine-4-carboxamide], for which the Kb worked out at 300 nM.

Regarding `CC(C)(C)NC(=O)c1cc(-c2ccc(Cl)cc2)nc(-n2ccnc2C2CC2)c1` [Example 5, N-tert-Butyl-2-(4-chlorophenyl)-6-(2-cyclopropyl-imidazol-1-yl)-pyridine-4-carboxamide], the Kb was determined as 120 nM.

Compound `CCc1nccn1-c1cc(C(=O)NC(C)(C)C)cc(-c2ccc(F)cc2)n1` [Example 8, N-tert-Butyl-2-(2-ethyl-imidazol-1-yl)-6-(4-fluorophenyl)-pyridine-4-carboxamide] yielded a Kb of 210 nM.

`CC(C)c1nccn1-c1cc(C(=O)NC(C)(C)C(F)(F)F)cc(-c2ccc(Cl)cc2)n1` [Example 23, 2-(4-Chlorophenyl)-6-(2-propan-2-yl-imidazol-1-yl)-N-(1,1,1-trifluoro-2-methylpropan-2-yl)-pyridine-4-carboxamide] yielded a Kb of 320 nM.

For the compound `CC(C)(C)NC(=O)c1cc(-c2ccc(Cl)cc2)nc(-n2ccnc2CO)c1` [Example 22, N-tert-Butyl-2-(4-chlorophenyl)-6-[2-(hydroxymethyl)-imidazol-1-yl]-pyridine-4-carboxamide], the Kb worked out at 500 nM.
